Measurements from the NIST ThermoML archive (doi:10.1016/j.jct.2016.03.035).
“And” between values parts separate entries of the source, which are not always exact repeats. Equal values may be shown once.

Test: xn = mol fraction of the nth substance listed
Details: Gas, Buoyancy - hydrostatic balance with magnetic suspension - two sinkers

C [methane] + CCC
Details	mass density
293.15 K, 355.08 kPa, x1 = 0.2658	5.5657 kg/m3 and 5.5657 kg/m3
293.15 K, 393.88 kPa, x1 = 0.5069	4.9713 kg/m3 and 4.9715 kg/m3
293.15 K, 469.3 kPa, x1 = 0.2658	7.4651 kg/m3
293.15 K, 568.76 kPa, x1 = 0.2658	9.1679 kg/m3
293.15 K, 613.83 kPa, x1 = 0.5069	7.885 kg/m3 and 7.8849 kg/m3
293.15 K, 655.65 kPa, x1 = 0.2658	10.6965 kg/m3 and 10.6961 kg/m3
293.15 K, 803.71 kPa, x1 = 0.5069	10.4888 kg/m3
293.15 K, 803.74 kPa, x1 = 0.5069	10.4889 kg/m3
293.15 K, 803.76 kPa, x1 = 0.5069	10.4892 kg/m3
293.15 K, 857.4 kPa, x1 = 0.2658	14.4071 kg/m3 and 14.4072 kg/m3
293.15 K, 955.25 kPa, x1 = 0.2658	16.2978 kg/m3 and 16.2977 kg/m3
293.15 K, 1006.2 kPa, x1 = 0.5069	13.3633 kg/m3
293.15 K, 1105.7 kPa, x1 = 0.2658	19.3404 kg/m3
293.15 K, 1209.4 kPa, x1 = 0.5069	16.361 kg/m3
293.15 K, 1209.7 kPa, x1 = 0.5069	16.3642 kg/m3
293.15 K, 1399.6 kPa, x1 = 0.5069	19.2776 kg/m3
293.15 K, 1605.7 kPa, x1 = 0.5069	22.5751 kg/m3
293.15 K, 1605.8 kPa, x1 = 0.5069	22.5767 kg/m3 and 22.5758 kg/m3
293.15 K, 1807.2 kPa, x1 = 0.5069	25.9502 kg/m3
294.01 K, 1223.6 kPa, x1 = 0.2658	21.7481 kg/m3
294.04 K, 1223.7 kPa, x1 = 0.2658	21.7478 kg/m3
294.06 K, 1223.9 kPa, x1 = 0.2658	21.7477 kg/m3
294.09 K, 1224 kPa, x1 = 0.2658	21.7474 kg/m3
294.12 K, 1224.2 kPa, x1 = 0.2658	21.747 kg/m3
294.15 K, 1224.3 kPa, x1 = 0.2658	21.7472 kg/m3
294.18 K, 1224.5 kPa, x1 = 0.2658	21.7471 kg/m3
294.21 K, 1224.7 kPa, x1 = 0.2658	21.7472 kg/m3
294.25 K, 1224.9 kPa, x1 = 0.2658	21.7472 kg/m3
294.28 K, 1225.2 kPa, x1 = 0.2658	21.747 kg/m3
294.32 K, 1225.4 kPa, x1 = 0.2658	21.747 kg/m3
294.37 K, 1225.6 kPa, x1 = 0.2658	21.747 kg/m3
294.41 K, 1225.9 kPa, x1 = 0.2658	21.7466 kg/m3
294.46 K, 1226.2 kPa, x1 = 0.2658	21.7464 kg/m3
294.5 K, 1226.4 kPa, x1 = 0.2658	21.7465 kg/m3
294.56 K, 1226.7 kPa, x1 = 0.2658	21.7464 kg/m3
294.61 K, 1227 kPa, x1 = 0.2658	21.746 kg/m3
294.67 K, 1227.4 kPa, x1 = 0.2658	21.7447 kg/m3
294.74 K, 1227.7 kPa, x1 = 0.2658	21.744 kg/m3
294.81 K, 1228.1 kPa, x1 = 0.2658	21.7437 kg/m3
294.88 K, 1228.5 kPa, x1 = 0.2658	21.7435 kg/m3
294.95 K, 1228.9 kPa, x1 = 0.2658	21.743 kg/m3
295.11 K, 1229.9 kPa, x1 = 0.2658	21.7426 kg/m3
295.2 K, 1230.4 kPa, x1 = 0.2658	21.7417 kg/m3
295.29 K, 1230.9 kPa, x1 = 0.2658	21.741 kg/m3
295.39 K, 1231.4 kPa, x1 = 0.2658	21.7403 kg/m3
295.5 K, 1232 kPa, x1 = 0.2658	21.7395 kg/m3
295.6 K, 1232.6 kPa, x1 = 0.2658	21.7391 kg/m3
295.72 K, 1233.3 kPa, x1 = 0.2658	21.738 kg/m3
295.84 K, 1234 kPa, x1 = 0.2658	21.7373 kg/m3
295.97 K, 1234.7 kPa, x1 = 0.2658	21.7364 kg/m3
296.1 K, 1235.4 kPa, x1 = 0.2658	21.7356 kg/m3
296.24 K, 1236.2 kPa, x1 = 0.2658	21.7346 kg/m3
296.39 K, 1237 kPa, x1 = 0.2658	21.7335 kg/m3
296.55 K, 1237.9 kPa, x1 = 0.2658	21.7324 kg/m3
296.71 K, 1238.8 kPa, x1 = 0.2658	21.731 kg/m3
296.88 K, 1239.8 kPa, x1 = 0.2658	21.7302 kg/m3
297.07 K, 1240.8 kPa, x1 = 0.2658	21.7284 kg/m3
297.26 K, 1241.9 kPa, x1 = 0.2658	21.7273 kg/m3
297.45 K, 1243 kPa, x1 = 0.2658	21.7257 kg/m3
297.66 K, 1244.1 kPa, x1 = 0.2658	21.7254 kg/m3
297.86 K, 1245.3 kPa, x1 = 0.2658	21.7253 kg/m3
298.04 K, 1246.4 kPa, x1 = 0.2658	21.7265 kg/m3
298.15 K, 1247.3 kPa, x1 = 0.2658	21.7319 kg/m3
